US8173829B2, “Carbamate stereoisomer” (Sunovion Pharmaceuticals Inc., priority 2007, dated 2012)

Key:
[1] = Stability in aqueous buffered solutions; format: physicochemical
Description: Stability in Aqueous Buffered Solutions
Solution Preparations: For each test compound, the following solutions are prepared. • Solution A is prepared from ˜30 mg of the test compound in 150 mL of 0.005 M citrate buffer, pH 5.0 (˜0.2 mg/mL). • Solution B is prepared as follows: approximately 30 mL aliquot of Solution A is transferred to a separated container and the pH of the solution is adjusted to pH 3.0 with 1 N HCl (˜0.2 mL). • Solution C is prepared as follows: approximately 30 mL aliquot of Solution A is transferred to a separated container and the pH of the solution is adjusted to pH ˜8.0 with 1 N NaOH (˜0.2 mL). • Note: Because the volume of 1 N HCl or 1 N NaOH used for adjusting pH was negligible, the concentration of test compound in Solutions A, B and C were the same.
Storage SCHEME • As soon as the above solutions were prepared, aliquots of each solution were transferred into 11 vials, of which 9 vials are stored at −20° C., and one each is stored at 30° C. and 40° C., respectively. • At each interval listed below, two vials are removed from −20° C. storage, and stored at 30° C. and 40° C., respectively. • The corresponding weeks under the storage condition (30° C. or 40° C.) are shown in the table below.
On Week 12, the last vial stored at −20° C. is removed and warmed up to the room temperature, which is the Day 0 Solution.
Sample Analysis: On Week 12, all solutions are assayed by an HPLC method using the Day 0 Solution at pH 5 as a standard solution. The test compounds were assayed by HPLC with UV detection (refer to Table 1 for method conditions).

[2] = target: T1, human recombinant β1 receptors (Homo sapiens, UniProt P08588); experiment: β1 radioligand binding assay; conditions: β1 receptor
T1 construct: expressed in transfected cells; host or cells: CHO cells
Description: (§1) βi and β2 Radioligand Binding Assays
(§2) The Ki is calculated from the IC50 and the known KD of the radioligand (Cheng and Prusoff's equation).

[3] = target: T2, human recombinant β2 receptors expressed in CHO cells (Homo sapiens, UniProt P07550); experiment: Intrinsic activity assessment (β2), cAMP production; format: cell-based; conditions: % response relative to a procaterol-induced cAMP increase
T2 construct: expressed in transfected cells; host or cells: CHO cells
Description: Intrinsic Activity Assessment (β2)
The intrinsic activity of a test compound is assessed by evaluating its ability to increase cAMP production from human recombinant β2 receptors expressed in CHO cells. Data are expressed as % response relative to a procaterol-induced cAMP increase.

adrenergic β2 receptors = target: T3, adrenergic β2 receptors (Cavia porcellus, UniProt Q8K4Z4); experiment: β2 adrenergic activity (functional), relaxation of spontaneous tone of isolated trachea; set-up: species or system Dunkin Hartley Guinea pigs
T3 construct: from tissue; host or cells: isolated trachea of Dunkin Hartley guinea pigs

[4] = target: T4, human recombinant β2 receptors (Homo sapiens, UniProt P07550); experiment: β2 radioligand binding assay
T4 construct: expressed in transfected cells; host or cells: CHO cells
Description: as §1, §2

adrenergic β1 receptors = target: T5, adrenergic β1 receptors (Cavia porcellus, UniProt H0W3H1); experiment: β1 adrenergic activity (functional), positive chronotropic effect in isolated right atria; set-up: species or system Dunkin Hartley Guinea pigs; conditions: β1 functional assay, at a concentration of 30 μM
T5 construct: from tissue; host or cells: isolated right atria of Dunkin Hartley guinea pigs
T5 sequence (H0W3H1 1-470): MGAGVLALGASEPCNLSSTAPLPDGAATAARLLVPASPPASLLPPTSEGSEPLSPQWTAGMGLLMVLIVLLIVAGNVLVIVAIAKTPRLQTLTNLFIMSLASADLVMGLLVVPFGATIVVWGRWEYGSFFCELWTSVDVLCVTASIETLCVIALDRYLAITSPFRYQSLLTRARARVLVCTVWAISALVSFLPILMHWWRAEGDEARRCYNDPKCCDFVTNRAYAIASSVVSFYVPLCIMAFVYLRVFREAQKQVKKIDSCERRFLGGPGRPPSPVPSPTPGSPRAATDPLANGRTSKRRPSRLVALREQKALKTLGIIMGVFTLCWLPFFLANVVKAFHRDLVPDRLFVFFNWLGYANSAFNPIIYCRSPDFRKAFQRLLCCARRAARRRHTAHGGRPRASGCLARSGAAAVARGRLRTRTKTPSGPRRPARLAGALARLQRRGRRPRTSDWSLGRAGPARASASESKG

T1 sequence (P08588 whole entry): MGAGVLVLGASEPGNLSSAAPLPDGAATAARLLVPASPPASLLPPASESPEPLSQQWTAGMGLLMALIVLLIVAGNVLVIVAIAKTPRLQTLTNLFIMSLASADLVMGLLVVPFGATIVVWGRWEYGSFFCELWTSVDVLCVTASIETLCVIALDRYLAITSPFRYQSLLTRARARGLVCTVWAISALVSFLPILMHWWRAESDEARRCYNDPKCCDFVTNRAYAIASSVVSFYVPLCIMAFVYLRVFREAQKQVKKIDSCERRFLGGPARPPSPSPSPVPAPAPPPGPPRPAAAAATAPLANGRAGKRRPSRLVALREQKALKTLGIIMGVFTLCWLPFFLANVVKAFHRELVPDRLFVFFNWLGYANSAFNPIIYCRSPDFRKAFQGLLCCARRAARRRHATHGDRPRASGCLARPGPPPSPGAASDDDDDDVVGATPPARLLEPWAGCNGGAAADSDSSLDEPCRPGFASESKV
T4 sequence (P07550 whole entry): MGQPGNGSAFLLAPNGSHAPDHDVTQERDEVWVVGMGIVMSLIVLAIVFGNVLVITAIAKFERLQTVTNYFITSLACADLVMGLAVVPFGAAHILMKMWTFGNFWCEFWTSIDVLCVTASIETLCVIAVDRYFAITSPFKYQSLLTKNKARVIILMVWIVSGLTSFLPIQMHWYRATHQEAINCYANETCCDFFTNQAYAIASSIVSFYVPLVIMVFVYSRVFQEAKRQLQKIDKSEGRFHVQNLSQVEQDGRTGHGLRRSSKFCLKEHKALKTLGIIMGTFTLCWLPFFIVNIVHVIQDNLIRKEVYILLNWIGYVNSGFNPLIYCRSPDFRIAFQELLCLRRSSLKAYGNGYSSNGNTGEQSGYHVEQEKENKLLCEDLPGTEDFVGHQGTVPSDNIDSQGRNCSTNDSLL
T3 sequence (Q8K4Z4 whole entry): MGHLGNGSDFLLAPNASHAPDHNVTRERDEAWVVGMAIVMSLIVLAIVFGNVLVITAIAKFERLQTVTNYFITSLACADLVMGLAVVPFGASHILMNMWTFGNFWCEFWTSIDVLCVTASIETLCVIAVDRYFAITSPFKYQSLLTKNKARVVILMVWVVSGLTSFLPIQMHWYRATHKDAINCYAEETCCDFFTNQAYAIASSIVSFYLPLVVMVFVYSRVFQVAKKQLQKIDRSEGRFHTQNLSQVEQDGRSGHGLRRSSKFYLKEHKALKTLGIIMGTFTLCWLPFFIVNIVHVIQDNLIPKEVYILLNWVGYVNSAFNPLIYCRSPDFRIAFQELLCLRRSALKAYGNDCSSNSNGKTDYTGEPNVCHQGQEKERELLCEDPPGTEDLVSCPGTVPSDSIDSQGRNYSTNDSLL
T2 sequence (P07550 whole entry): as the sequence (P07550 whole entry) above

In the case of COC(=O)Nc1cc([C@H](O)CN[C@H](C)Cc2ccc(O)cc2)ccc1O [Example 1, Carbamic acid, [2-hydroxy-5-[(1S)-1-hydroxy-2-[[(1R)-2-(4-hydroxyphenyl)-1-methylethyl]amino]ethyl]-phenyl]-, methyl ester], the “% of Initial Concentration (0.19847 mg/mL) in pH 5.0” value (from here on “% of Initial Concentration”) ([1]; pH 3.0, 30° C., 0 wk) is reported as 98.31%, the “% of Initial Concentration” value ([1]; pH 3.0, 30° C., 1 wk) is reported as 99.95% and the “% of Initial Concentration” value ([1]; pH 3.0, 30° C., 2 wk) is reported as 99.12%. For the same molecule, the “% of Initial Concentration” value ([1]; pH 3.0, 30° C., 4 wk) was 100.91%, the “% of Initial Concentration” value ([1]; pH 3.0, 30° C., 8 wk) was 101.16% and the “% of Initial Concentration” value ([1]; pH 3.0, 30° C., 12 wk) was 101.54%. The “% of Initial Concentration” value ([1]; pH 3.0, 40° C., 0 wk) was 98.31%, the “% of Initial Concentration” value ([1]; pH 3.0, 40° C., 1 wk) was 98.87% and the “% of Initial Concentration” value ([1]; pH 3.0, 40° C., 2 wk) was 100.33%. The “% of Initial Concentration” value ([1]; pH 3.0, 40° C., 4 wk) was 105.71%, the “% of Initial Concentration” value ([1]; pH 3.0, 40° C., 8 wk) was 106.72% and the “% of Initial Concentration” value ([1]; pH 3.0, 40° C., 12 wk) was 106.51%. For the same molecule, the “time for which found to be very stable” value ([1]; pH 3 or 5, stored at 30° C.) was “at least 12 weeks”, the “% of Initial Concentration” value ([1]; pH 5.0, 30° C., 0 wk) was 100.20% and the “% of Initial Concentration” value ([1]; pH 5.0, 30° C., 1 wk) was 99.68%. For the same molecule, the “% of Initial Concentration” value ([1]; pH 5.0, 30° C., 2 wk) was 101.08%, the “% of Initial Concentration” value ([1]; pH 5.0, 30° C., 4 wk) was 101.59% and the “% of Initial Concentration” value ([1]; pH 5.0, 30° C., 8 wk) was 105.28%. The “% of Initial Concentration” value ([1]; pH 5.0, 30° C., 12 wk) was 106.61%, the “% of Initial Concentration” value ([1]; pH 5.0, 40° C., 0 wk) was 100.20% and the “% of Initial Concentration” value ([1]; pH 5.0, 40° C., 1 wk) was 100.40%. The “% of Initial Concentration” value ([1]; pH 5.0, 40° C., 2 wk) was 101.07%, the “% of Initial Concentration” value ([1]; pH 5.0, 40° C., 4 wk) was 102.09% and the “% of Initial Concentration” value ([1]; pH 5.0, 40° C., 8 wk) was 104.88%. The “% of Initial Concentration” value ([1]; pH 5.0, 40° C., 12 wk) was 106.74%, the “% of Initial Concentration” value ([1]; ~pH 8, 30° C., 0 wk) was 97.78% and the “% of Initial Concentration” value ([1]; ~pH 8, 30° C., 1 wk) was 69.33%. For the same molecule, the “% of Initial Concentration” value ([1]; ~pH 8, 30° C., 2 wk) was 50.77%, the “% of Initial Concentration” value ([1]; ~pH 8, 30° C., 4 wk) was 27.72% and the “% of Initial Concentration” value ([1]; ~pH 8, 30° C., 8 wk) was 6.96%. The “% of Initial Concentration” value ([1]; ~pH 8, 30° C., 12 wk) was 1.24%, the “% of Initial Concentration” value ([1]; ~pH 8, 40° C., 0 wk) was 97.78% and the “% of Initial Concentration” value ([1]; ~pH 8, 40° C., 1 wk) was 30.18%. For the same molecule, the “% of Initial Concentration” value ([1]; ~pH 8, 40° C., 2 wk) was 8.85%, the “% of Initial Concentration” value ([1]; ~pH 8, 40° C., 4 wk) was 0.52% and the “% of Initial Concentration” value ([1]; ~pH 8, 40° C., 8 wk) was 0%. The “% of Initial Concentration” value ([1]; ~pH 8, 40° C., 12 wk) was 0%, the inhibition at 20 µM ([2]; at a concentration of 20 μM, read-out: inhibition of specific binding) was 44% and the Ki ([2]; displacement of [125I]-cyanopidolol, CHO cells) was over 10000 nM. The Emax [3] was 79%, the β1/β2 functional ratio (adrenergic β2 receptors; ratio of EC50 β1 to EC50 β2) was over 484 and the EC50 (adrenergic β2 receptors; β2, isolated trachea, guinea pig) was 62 nM. The β1/β2 binding ratio ([4]; ratio of Ki β1 to Ki β2) was over 10, the Ki ([4]; β2 receptor, displacement of [3H]-CGP-12177, CHO cells) was 990 nM and the “increase in heart rate” value (adrenergic β1 receptors) was 20%.
